# Measurements: patent publication US20200095241A1, “SUBSTITUTED 1,2,4-THIADIAZOLYLPYRROLONES AND 1,2,4-THIADIAZOLYLHYDANTOINS AND SALTS THEREOF AND USE THEREOF AS HERBICIDES” (Bayer CropScience Aktiengesellschaft, priority 2016, published 2020)
# Assays:
# Alopecurus myosuroides [1] = test: Post-emergence herbicidal action; format: in vivo; conditions: 1280 g/ha, about 3 weeks after treatment
# Method in brief: (§1)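 Greenhouse post-emergence test: one-leaf-stage plants, 2–3 wk after sowing in sandy loam; foliar spray of WP/EC formulation + 0.5% additive, 600 l/ha water, 1280 or 320 g/ha. Visual % activity vs untreated control at ~3 wk; 100% = dead, 0% = as control.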
# Pharbitis purpurea = test: Post-emergence herbicidal action; format: in vivo; conditions: 1280 g/ha, about 3 weeks after treatment
# Method in brief: as §1
# Amaranthus retroflexus = test: Post-emergence herbicidal action; format: in vivo; conditions: 1280 g/ha, about 3 weeks after treatment
# Method in brief: as §1
# Abutilon theophrasti = test: Post-emergence herbicidal action; format: in vivo; conditions: Abutilon theophrasti, 504 h, 1280 g/ha, about 3 weeks after treatment, read-out: Abutilon theophrasti, herbicidal activity rated visually
# Method in brief: as §1
# Polygonum convolvulus [2] = test: Post-emergence herbicidal action; format: in vivo; conditions: 1280 g/ha, about 3 weeks after treatment
# Method in brief: as §1
# Hordeum murinum = test: Post-emergence herbicidal action; format: in vivo; conditions: 1280 g/ha, about 3 weeks after treatment
# Method in brief: as §1
# Echinochloa crus-galli [3] = test: Post-emergence herbicidal action; format: in vivo; conditions: 1280 g/ha, about 3 weeks after treatment
# Method in brief: as §1
# Matricaria inodora [4] = test: Post-emergence herbicidal action; format: in vivo; conditions: 1280 g/ha, about 3 weeks after treatment
# Method in brief: as §1
# Viola tricolor [5] = test: Post-emergence herbicidal action; format: in vivo; conditions: 504 h, 1280 g/ha, about 3 weeks after treatment, read-out: Viola tricolor, herbicidal activity rated visually
# Method in brief: as §1
# Stellaria media [6] = test: Post-emergence herbicidal action; format: in vivo; conditions: Stellaria media, 504 h, 1280 g/ha, about 3 weeks after treatment, read-out: Stellaria media, herbicidal activity rated visually
# Method in brief: as §1
# Veronica persica = test: Post-emergence herbicidal action; format: in vivo; conditions: 1280 g/ha, about 3 weeks after treatment
# Method in brief: as §1
# Setaria viridis [7] = test: Post-emergence herbicidal action; format: in vivo; conditions: Setaria viridis, 504 h, 1280 g/ha, about 3 weeks after treatment, read-out: Setaria viridis, herbicidal activity rated visually
# Method in brief: as §1
# Alopecurus myosuroides [8] = test: Pre-emergence herbicidal action; format: in vivo; conditions: 1280 g/ha, after about 3 weeks
# Method in brief: (§2)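 Pre-emergence soil spray at 320 or 1280 g/ha (aqueous WP/EC preparation containing 0.5% additive, 600 l/ha) onto pots holding newly covered seeds. Greenhouse growth followed, and damage was rated as percent of untreated control after about three weeks.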
# Polygonum convolvulus [9] = test: Pre-emergence herbicidal action; format: in vivo; conditions: 1280 g/ha, after about 3 weeks
# Method in brief: as §2
# Echinochloa crus-galli [10] = test: Pre-emergence herbicidal action; format: in vivo; conditions: 1280 g/ha, after about 3 weeks
# Method in brief: as §2
# Matricaria inodora [11] = test: Pre-emergence herbicidal action; format: in vivo; conditions: Tripleurospermum inodorum, 504 h, 1280 g/ha, after about 3 weeks, read-out: Matricaria inodora, herbicidal effect scored visually
# Method in brief: as §2
# Viola tricolor [12] = test: Pre-emergence herbicidal action; format: in vivo; conditions: Viola tricolor, 504 h, 1280 g/ha, after about 3 weeks, read-out: Viola tricolor, herbicidal effect scored visually
# Method in brief: as §2
# Stellaria media [13] = test: Pre-emergence herbicidal action; format: in vivo; conditions: Stellaria media, 504 h, 1280 g/ha, after about 3 weeks, read-out: Stellaria media, herbicidal effect scored visually
# Method in brief: as §2
# Setaria viridis [14] = test: Pre-emergence herbicidal action; format: in vivo; conditions: Setaria viridis, 504 h, 1280 g/ha, after about 3 weeks, read-out: Setaria viridis, herbicidal effect scored visually
# Method in brief: as §2
# Cyperus esculentus = test: Pre-emergence herbicidal action; format: in vivo; conditions: 1280 g/ha, after about 3 weeks
# Method in brief: as §2
# photosystem II (PS II) = molecular target: T1, photosystem II (PS II) (Spinacia oleracea, UniProt P69560); test: Measurement of the PS II activity in thylakoid membranes (DCPIP reduction); format: biochemical; conditions: 100 μM test compound, spinach thylakoid membranes, DCPIP 120 μM, 10 min at 22° C. with exposure to light; read-out: Effect (inhibition of PS II activity)
# T1 construct: the chloroplasts were osmotically ruptured and the thylakoid membranes were then obtained by centrifugation; from tissue; host or cells: fresh spinach leaves; thylakoid membranes isolated from chloroplasts
# Method in brief: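 Thylakoid membranes from spinach leaves in 50 mM phosphate buffer pH 6.8, 10 mM KCl; light-driven reduction of 120 μM DCPIP followed at 595 nm for 10 min at 22 °C. Compounds tested at 100 μM stock in DMSO (2.5% final DMSO), with activity binned by % inhibition classes.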
compound,measurement,setting,value
"CC1=C(C)C(O)N(c2nc(C(C)C)ns2)C1=O (stereo not drawn) [I.2-5, 3,4-Dimethyl-5-hydroxy-1-(3-(isopropyl)-1,2,4-thiadiazol-5-yl)-1,5-dihydro-2H-pyrrol-2-one]","Alopecurus myosuroides, herbicidal activity rated visually",Alopecurus myosuroides [1],80%
same,"Pharbitis purpurea, herbicidal activity rated visually",Pharbitis purpurea,100%
same,"Amaranthus retroflexus, herbicidal activity rated visually",Amaranthus retroflexus,100%
same,pest or weed control at 1280 g/ha,Abutilon theophrasti,100%
same,"Polygonum convolvulus, herbicidal activity rated visually",Polygonum convolvulus [2],80%
same,"Hordeum murinum, herbicidal activity rated visually",Hordeum murinum,100%
same,"Echinochloa crus-galli, herbicidal activity rated visually",Echinochloa crus-galli [3],90%
same,"Matricaria inodora, herbicidal activity rated visually",Matricaria inodora [4],100%
same,pest or weed control at 1280 g/ha,Viola tricolor [5],100%
same,pest or weed control at 1280 g/ha,Stellaria media [6],100%
same,"Veronica persica, herbicidal activity rated visually",Veronica persica,90%
same,pest or weed control at 1280 g/ha,Setaria viridis [7],100%
same,"Alopecurus myosuroides, herbicidal effect scored visually",Alopecurus myosuroides [8],80%
same,"Polygonum convolvulus, herbicidal effect scored visually",Polygonum convolvulus [9],100%
same,"Echinochloa crus-galli, herbicidal effect scored visually",Echinochloa crus-galli [10],80%
same,pest or weed control at 1280 g/ha,Matricaria inodora [11],100%
same,pest or weed control at 1280 g/ha,Viola tricolor [12],100%
same,pest or weed control at 1280 g/ha,Stellaria media [13],100%
same,pest or weed control at 1280 g/ha,Setaria viridis [14],100%
same,"Cyperus esculentus, herbicidal effect scored visually",Cyperus esculentus,90%
same,inhibition at 100 µM (stock),photosystem II (PS II),> 90%
